Assay results from patent US11952364B2, “TRK inhibitors useful as anticancer drugs” (TYLIGAND BIOSCIENCE (SHANGHAI) LIMITED, priority 2018, dated 2024).

These molecules were tested on Ba/F3 LMNA-NTRK1-G667C cells (assay: Proliferation of Ba/F3 LMNA-NTRK1-G667C cells (CellTiter-Glo)). Conditions: Mus musculus, BaF3, 72 h, Table 4; 72 hours; read-out: Ba/F3 LMNA-NTRK1-G667C, IC50.
Type: cell-based, mouse
Text: Ba/F3 LMNA-NTRK1-G667C is a stable transgenic cell line constructed by KYinno Biotechnology Co., Ltd. on mouse primary B cell Ba/F3 wherein NTRK1 has a mutation of G to Cat position 667 and is highly expressed and fused with LMNA to form LMNA-NTRK1-G667C. • [Test method]: Promega's CellTiter-Glo® Luminescent Cell Viability Assay kit was used to evaluate the inhibitory activity of the compounds on the proliferation of Ba/F3 LMNA-NTRK1-G667C cells. • [Instrument]: Spectramax M3 multifunctional microplate reader from Molecular Devices. • [Test materials]: Ba/F3 LMNA-NTRK1-G667C cell line (constructed by KYinno Co., Ltd. (Beijing)), 96-well transparent flat-bottomed black-walled cell culture plate (Corning, cat #3603), RPMI-1640 media (GE, cat #SH30027.01), fetal bovine serum FBS (Thermo Fisher, cat #10099-141), CellTiter-Glo® Luminescent Cell Viability Assay kit (Promega, cat #G7572), PBS (Solarbio, cat #P1020), DMSO (Sigma, cat #D2650). • [Experimental procedure]: When resuscitating Ba/F3 LMNA-NTRK1-G667C cells, the freezing tube was quickly shaken in a 37° C. water bath to melt within 1 minute. The thawed cell suspension was mixed uniformly with RPMI1640 medium containing 10% FBS, centrifuged at 1000 rpm for 5 minutes, and the supernatant discarded. 5 mL of complete medium (RPMI1640 medium with 10% FBS) was taken to resuspend the cell pellets, charged into a cell culture flask with a bottom area of 25 cm^2, and incubated in a cell incubator at 37° C., 95% humidity and 5% CO2. Cells were allowed to passage when the number of cells reached about 10^6 cells/mL. For cell passage, the old cell suspension was directly pipetted evenly, 1/5 of the cell suspension was kept, 4 mL of new complete medium was added, after pipetting evenly, the cell flask was placed in the cell incubator for further culturing. Cell plating was performed when the number of cells reached about 10^6 cells/mL again. For cell plating, 1/5 of the cell suspension was kept for further culturing as in the cell passage method, and the remaining 4/5 of the cell suspension was placed in a 15 mL centrifuge tube, detected for cell viability by Trypan blue exclusion method to ensure that cell viability was above 90%. A cell suspension with a density of 5.56×10^4 viable cells/mL was prepared with complete medium, and 90 μL of such cell suspension was added to a 96-well cell culture plate to obtain the cell density of 5000 viable cells/mL in the cell culture plate. A control group containing no cells, no compound and only complete medium (i.e. culture medium control) and a control group containing no compound but containing cells (i.e. cell control) were set. The cell plate was placed in a cell incubator overnight. The 10 mM compound stock solution in DMSO was first serially diluted with DMSO at a dilution factor of 3.16 times, to obtain 9 concentrations, and the 10th concentration was set as DMSO control without compound. Then, PBS was used to dilute the DMSO solutions of compounds of different concentrations, at a dilution factor of 100 times, so that the DMSO concentration in the compound solution of each concentration was 1%. Finally, 10 μL of each of the above solutions was added to the corresponding cell culture plate, so that the initial compound concentration was 10 μM, with the remaining concentrations being successively diluted at a dilution factor of 3.16 times, and the DMSO content in the cell culture plate was 0.1%. The cell plate was placed in a cell incubator and cultured for 72 hours. For endpoint detection, the CellTiter-Glo reagent was melted, and the cell plate was moved to room temperature to equilibrate for 30 minutes, added with 100 μL of CellTiter-Glo for each well, and shaken on an orbital shaker for 5 minutes to fully lyse the cells. The plate was kept at room temperature for 20 minutes to stabilize the luminescence signal, and the luminescence value of each well was scanned with a multi-functional microplate reader at full wavelength. • [Test samples] […]

Structure (SMILES)	IC50
CCc1ccc(C(=O)Nc2ccc(Oc3cc4cnn(C)c4cc3-c3cn[nH]c3)c(F)c2)c(=O)n1-c1ccc(F)cc1 [Example 5, N-(3-fluoro-4-(1-methyl-6-(1H-pyrazol-4-yl)-1H-indazol-5-yloxy)phenyl)-1-(4-fluorophenyl)-6-ethyl-2-oxo-1,2-dihydropyridine-3-carboxamide]	< 1 nM
Cn1ncc2cc(Oc3ccc(NC(=O)c4ccc(C(F)(F)F)n(-c5ccc(F)cc5)c4=O)cc3F)c(-c3cn[nH]c3)cc21 [Example 1, N-(3-fluoro-4-(1-methyl-6-(1H-pyrazol-4-yl)-1H-indazol-5-yloxy)phenyl)-1-(4-fluorophenyl)-6-trifluoromethyl-2-oxo-1,2-dihydmpyridine-3-carboxamide monomethanesulfonate]	2 nM
CC(C)c1ccc(C(=O)Nc2ccc(Oc3cc4cnn(C)c4cc3-c3cn[nH]c3)c(F)c2)c(=O)n1-c1ccc(F)cc1 [Example 6, N-(3-fluoro-4-(1-methyl-6-(1H-pyrazol-4-yl)-1H-indazol-5-yloxy)phenyl)-1-(4-fluorophenyl)-6-isopropyl-2-oxo-1,2-dihydropyridine-3-carboxamide]	0.66 nM
O=C(Nc1cnn2ccc(N3CCC[C@@H]3c3cc(F)ccc3F)nc12)N1CC[C@H](O)C1 [LOXO-101, Larotrectinib, reference compound]	2410 nM
Cc1ccc(C(=O)Nc2ccc(Oc3cc4cnn(C(C)C)c4cc3-c3cn[nH]c3)c(F)c2)c(=O)n1-c1ccc(F)cc1 [Example 4, N-(3-fluoro-4-(1-isopropyl-6-(1H-pyrazol-4-yl)-1H-indazol-5-yloxy)phenyl)-1-(4-fluorophenyl)-6-methyl-2-oxo-1,2-dihydmpyridine-3-carboxamide]	2.8 nM
Cn1ncc2cc(Oc3ccc(NC(=O)c4ccc(C5CC5)n(-c5ccc(F)cc5)c4=O)cc3F)c(-c3cn[nH]c3)cc21 [Example 2, N-(3-fluoro-4-(1-methyl-6-(1H-pyrazol-4-yl)-1H-indazol-5-yloxy)phenyl)-1-(4-fluorophenyl)-6-cyclopropyl-2-oxo-1,2-dihydmpyridine-3-carboxamide]	1.1 nM
Cc1ccc(C(=O)Nc2ccc(Oc3cc4cnn(C)c4cc3-c3cn[nH]c3)c(F)c2)c(=O)n1-c1ccc(F)cc1 [Merestinib, reference compound]	1.1 nM

Same assay, conditions: Mus musculus, BaF3, Table 4-1; separate test; read-out: Ba/F3 LMNA-NTRK1-G667C, IC50

Structure (SMILES)	IC50
CCn1ncc2cc(Oc3ccc(NC(=O)c4ccc(OC)n(-c5ccc(F)cc5)c4=O)cc3F)c(-c3cn[nH]c3)cc21 [Example 23, N-(3-fluoro-4-(1-ethyl-6-(1H-pyrazol-4-yl)-1H-indazol-5-yloxy)phenyl)-1-(4-fluorophenyl)-6-methoxy-2-oxo-1,2-dihydropyridine-3-carboxamide]	1 nM
CCn1ncc2cc(Oc3ccc(NC(=O)c4ccc(C5CC5)n(-c5ccc(F)cc5)c4=O)cc3F)c(-c3cn[nH]c3)cc21 [Example 19, N-(3-fluoro-4-(1-ethyl-6-(1H-pyrazol-4-yl)-1H-indazol-5-yloxy)phenyl)-1-(4-fluorophenyl)-6-cyclopropyl-2-oxo-1,2-dihydropyridine-3-carboxamide]	2 nM
CCc1ccc(C(=O)Nc2ccc(Oc3cc4cnn(CC)c4cc3-c3cn[nH]c3)c(F)c2)c(=O)n1-c1ccc(F)cc1 [Example 18, N-(3-fluoro-4-(1-ethyl-6-(1H-pyrazol-4-yl)-1H-indazol-5-yloxy)phenyl)-1-(4-fluorophenyl)-6-ethyl-2-oxo-1,2-dihydropyridine-3-carboxamide]	1 nM
Cc1ccc(C(=O)Nc2ccc(Oc3cc4cnn(C)c4cc3-c3cn[nH]c3)c(F)c2)c(=O)n1-c1ccc(F)cc1 [Merestinib, reference compound]	1 nM

Same assay, conditions: Mus musculus, BaF3, Table 4-2; separate test; read-out: Ba/F3 LMNA-NTRK1-G667C, IC50

Structure (SMILES)	IC50
CSc1ccc(C(=O)Nc2ccc(Oc3cc4cnn(C)c4cc3-c3cn[nH]c3)c(F)c2)c(=O)n1-c1ccc(F)cc1 [Example 11, N-(3-fluoro-4-(1-methyl-6-(1H-pyrazol-4-yl)-1H-indazol-5-yloxy)phenyl)-1-(4-fluorophenyl)-6-methylthio-2-oxo-1,2-dihydropyidine-3-carboxamide]	10.5 nM
CCOc1ccc(C(=O)Nc2ccc(Oc3cc4cnn(C)c4cc3-c3cn[nH]c3)c(F)c2)c(=O)n1-c1ccc(F)cc1 [Example 14, N-(3-fluoro-4-(1-methyl-6-(1H-pyrazol-4-yl)-1H-indazol-5-yloxy)phenyl)-1-(4-fluorophenyl)-6-ethoxy-2-oxo-12-dihydropyridine-3-carboxamide]	8.6 nM
CCn1ncc2cc(Oc3ccc(NC(=O)c4ccc(OC(C)C)n(-c5ccc(F)cc5)c4=O)cc3F)c(-c3cn[nH]c3)cc21 [Example 26, N-(3-fluoro-4-(1-ethyl-6-(1H-pyrazol-4-yl)-1H-indazol-5-yloxy)phenyl)-1-(4-fluorophenyl)-6-isopropoxy-2-oxo-1,2-dihydropyridine-3-carboxamide]	17.5 nM
CC(C)Oc1ccc(C(=O)Nc2ccc(Oc3cc4cnn(C)c4cc3-c3cn[nH]c3)c(F)c2)c(=O)n1-c1ccc(F)cc1 [Example 16, N-(3-fluoro-4-(1-methyl-6-(1H-pyrazol-4-yl)-1H-indazol-5-yloxy)phenyl)-1-(4-fluorophenyl)-6-isopropoxy-2-oxo-1,2-dihydropyridine-3-carboxamide]	10.7 nM
Cc1ccc(C(=O)Nc2ccc(Oc3cc4cnn(C)c4cc3-c3cn[nH]c3)c(F)c2)c(=O)n1-c1ccc(F)cc1 [Merestinib, reference compound]	14.1 nM

Same assay, conditions: Mus musculus, BaF3, Table 9; read-out: Ba/F3 LMNA-NTRK1-G667C cell proliferation inhibitory activity (IC50)

Structure (SMILES)	IC50
CC(C)Oc1ccc(C(=O)Nc2ccc(Oc3cc4cnn5c4c(c3-c3cn[nH]c3)CC5)c(F)c2)c(=O)n1-c1ccc(F)cc1 [Example 34, N-(4-((5-(1H-pyrazol-4-yl)-6,7-dihydropyrrolo[3,2,1-hi]-indazol-4-yl)oxy)-3-fluorophenyl)-1-(4-fluorophenyl)-6-isopropoxy-2-oxo-12-dihydropyrndine-3-carboxamide]	23.7 nM
CCOc1ccc(C(=O)Nc2ccc(Oc3cc4cnn5c4c(c3-c3cn[nH]c3)CC5)c(F)c2)c(=O)n1-c1ccc(F)cc1 [Example 32, N-(4-((5-(1H-pyrazol-4-yl)-6,7-dihydropyrrolo[3,2,1-hi]-indazol-4-yl)oxy)-3-fluorophenyl)-6-ethoxy-1-(4-fluorophenyl)-2-oxo-12-dihydropyridine-3-carboxamide]	19 nM
Cc1ccc(C(=O)Nc2ccc(Oc3cc4cnn5c4c(c3-c3cn[nH]c3)CC5)c(F)c2)c(=O)n1-c1ccc(F)cc1 [Example 31, N-(4-((5-(1H-pyrazol-4-yl)-6,7-dihydropyrrolo[3,2,1-hi]-indazol-4-yl)oxy)-3-fluorophenyl)-1-(4-fluorophenyl)-6-methyl-2-oxo-1,2-dihydropyridine-3-carboxamide]	33 nM
COc1ccc(C(=O)Nc2ccc(Oc3cc4cnn5c4c(c3-c3cn[nH]c3)CC5)c(F)c2)c(=O)n1-c1ccc(F)cc1 [Example 28, N-(4-((5-(1H-pyrazol-4-yl)-6,7-dihydropyrrolo[3,2,1-hi]-indazol-4-yl)oxy)-3-fluorophenyl)-1-(4-fluorophenyl)-6-methoxy-2-oxo-1,2-dihydropyidine-3-carboxamide]	19.8 nM

Same assay, conditions: Table 4-2; separate test; read-out: Ba/F3 LMNA-NTRK1-G667C, IC50

Structure (SMILES)	IC50
CCOc1ccc(C(=O)Nc2ccc(Oc3cc4cnn(CC)c4cc3-c3cn[nH]c3)c(F)c2)c(=O)n1-c1ccc(F)cc1 [Example 24, N-(3-fluoro-4-(1-ethyl-6-(1H-pyrazol-4-yl)-1H-indazol-5-yloxy)phenyl)-1-(4-fluorophenyl)-6-ethoxy-2-oxo-12-dihydropyridine-3-carboxamide]	17.3 nM
